Test results as given in paper PMC11917140, “Mining the UniProtKB/Swiss‐Prot database for antimicrobial peptides” (Protein Science : A Publication of the Protein Society, 2025).
Residues, ends and D or L forms follow the SMILES beside them. No end group written: not given here.

What was measured:
[1] = system: porcine red blood cells (RBCs); test: Hemolysis assay; format: cell-based, pig; conditions: 1% porcine RBCs in RPMI, 37°C 30–45 min, absorbance 415 nm, tested 1–128 μg/mL, 2% Triton-X100 = 100%; three independent experiments in duplicate, one maximum and one minimum data point dropped
Method: Hemolysis experiments were performed to evaluate the toxicity of the selected peptides to RBCs. Whole blood from healthy donor pigs was purchased from Lampire Biological Laboratories (Pipersville, PA, USA), and RBCs were washed and isolated by centrifugation using Roswell Park Memorial Institute (RPMI) medium (Life Technologies, Grand Island, NY, USA). Peptides were suspended and serially diluted from 1280 to 10 μg/mL using RPMI medium in a 96‐well polypropylene microtiter plate, and then combined with 100 μL of the 1% RBC solution, providing a final AMP testing range of 128 to 1 μg/mL. Plates were centrifuged after an incubation at 37°C for 30–45 min, and 1/2 volume from each supernatant was transferred to a new 96‐well plate. The absorbance of the wells was measured at 415 nm utilizing the Cytation 5 Cell Imaging Multimode Reader (BioTek, CA, USA), and the peptide concentration that lysed 50% of the RBCs (HC50) was used to determine the hemolytic activity. Absorbance readings from wells containing RBCs treated with 11 μL of a 2% Triton‐X100 solution or RPMI medium (AMP solvent‐only) were used to define 100% and 0% hemolysis, respectively. We note that all centrifugation steps were performed at 500× g for 5 min in an Allegra‐6R centrifuge (Beckman Coulter, CA, USA).

[2] = system: Escherichia coli ATCC 25922; format: cell-based; conditions: for MBC, E. coli ATCC 25922: ATCC 25922, 24 h
Method: (§1) To measure the antimicrobial activity of our selected putative AMPs in vitro, broth microdilution assays were conducted to determine the minimum inhibitory and minimum bactericidal concentrations (MICs and MBCs, respectively), as outlined by the Clinical and Laboratory Standards Institute [CLSI] ([2015]). The adaptations for testing cationic AMPs, as described previously (Wiegand et al., [2008]), were incorporated. The selected peptides were tested against laboratory isolates of E. coli 25922 and S. aureus 29213, which were purchased from the American Type Culture Collection (ATCC; Manassas, VA, USA). Bacteria from frozen stocks were streaked onto nonselective Columbia blood agar with 5% sheep blood (Oxoid) and incubated for 18–24 h at 37°C. To ensure the uniform colony health before the assay, 2–4 colonies were streaked onto a new agar plate and incubated for another 18–24 h at 37°C on the next day. To create a standardized bacterial inoculum, isolated colonies were suspended in Mueller‐Hinton Broth (MHB; Sigma‐Aldrich, St. Louis, MO, USA). The suspension was adjusted to an optical density of 0.08–0.1 at 600 nm, which corresponds to a 0.5 McFarland standard of approximately 1–2 × 10^8 colony‐forming units (CFU)/mL. The inoculum was then diluted 1:250, resulting in a final concentration of 5 ± 3 × 10^5 CFU/mL. The target bacterial density was confirmed by measuring the total viability counts from the final tested inoculum.
(§2) The selected putative AMPs were purchased from and synthesized by GenScript (Piscataway, NJ, USA) in lyophilized format. The peptides were stored at −20°C and were suspended in sterile ultrapure water prior to testing. A two‐fold serial dilution of 1280 to 2.5 μg/mL was prepared in sterile 96‐well polypropylene microtiter plates (Greiner Bio‐One #650261, Kremsmünster, Austria). Then, 100 μL of the standardized bacterial inoculum was added to each well, resulting in a final AMP testing range of 128 to 0.25 μg/mL. The MIC values were determined as the lowest peptide concentration in which no visible bacterial growth was observed after a 20–24 h incubation at 37°C. To determine the MBC values, well contents of the MIC and the two adjacent wells containing the two‐ and four‐fold higher peptide concentrations were plated onto nonselective nutrient agar. The concentration in which 99.9% of the inoculum was killed after an incubation for 24 h at 37°C was reported as the MBC.
(§3) In our tests, we used Ranatuerin‐4—a known AMP from the American bullfrog (Goraya et al., [1998]), and an in‐house peptide [TKPKG]3 (OT15) as the positive and negative control peptides, respectively. We note that OT15 was truncated and derived from a negative control peptide [TKPKG]4 (OT20), not antimicrobial but sharing similar characteristics to AMPs, used in previous studies (Horváti et al., [2017]).

[3] = system: Staphylococcus aureus ATCC 29213; format: cell-based; conditions: for MBC, S. aureus ATCC 29213: ATCC 29213, 24 h
Method: as §1, §2, §3

ILDKVRLWLARIRLNLLKR [PlVi1]
> 128 µg/mL: HC50 (concentration that lyses 50% of RBCs), porcine RBCs [1]

DLWFGLKTEGELAFVKRTIFDVIYKSAKRKR [ArTh10]
> 128 µg/mL: MIC, E. coli ATCC 25922 [2] | MBC, E. coli ATCC 25922 [2] | MIC, S. aureus ATCC 29213 [3] | MBC, S. aureus ATCC 29213 [3]

CSCC[C@H](NC(=O)[C@H](C)NC(=O)[C@H](CCC(=O)O)NC(=O)[C@H](Cc1c[nH]c2ccccc12)NC(=O)[C@H](CCCNC(=N)N)NC(=O)[C@@H](N)[C@@H](C)O)C(=O)N[C@@H](CCCCN)C(=O)N[C@@H](C)C(=O)N[C@@H](CCCCN)C(=O)N[C@@H](C)C(=O)N[C@H](C(=O)N[C@@H](CCC(=O)O)C(=O)N[C@@H](CC(C)C)C(=O)N[C@@H](CCCNC(=N)N)C(=O)N[C@H](C(=O)N[C@@H](CS)C(=O)N[C@@H](CS)C(=O)N[C@@H](C)C(=O)N[C@@H](CCCNC(=N)N)C(=O)N[C@@H](CCCNC(=N)N)C(=O)N[C@@H](CCCCN)C(=O)N[C@@H](CCCNC(=N)N)C(=O)O)C(C)C)[C@@H](C)O [HoSa2] (H-TRWEAMKAKATELRVCCARRKR-OH; N-terminus and C-terminus assumed)
> 128 µg/mL: MIC, E. coli ATCC 25922 [2] | MBC, E. coli ATCC 25922 [2] | MIC, S. aureus ATCC 29213 [3] | MBC, S. aureus ATCC 29213 [3]
